Experimental data: patent US20220211821A1, “COMPOSITION FOR PREVENTING OR TREATING OBESITY, COMPRISING PHOSPHOLIPASE A2 AS ACTIVE INGREDIENT” (UNIVERSITY-INOUSTRY COOPERATION GROUP OF KYUNG HEE …, priority 2019, published 2022)

What was measured:
[1] = tested on: mice of the HFD group; test: Comparison with mellitin: body weight changes in HFD mice; format: in vivo; conditions: 0.5 mg/kg intraperitoneally for 16 weeks, vs control group (PBS)
Protocol: In order to investigate a component having an excellent obesity inhibitory effect among the components of bee venom, mellitin, which is the most abundant in bee venom, was compared with bvPLA2, which is PLA2 derived from bee venom.
More specifically, the mice of the ND and HFD groups were intraperitoneally administered with PBS, mellitin, and bvPLA2 at 0.5 mg/kg each for 16 weeks, and then the body weight changes were compared every day.

[2] = tested on: mice with HFD-induced obesity; test: Adipose tissue weight and body weight of mice with HFD-induced obesity; format: in vivo, C57BL/6 mice
Protocol: (§1) Male C57BL/6 mice (5 weeks old; weight 18-20 g) and CD206−/− mice (B6.129P2-MRC1tm1Mnz/J) were purchased from Jackson Laboratory (Bar Harbor, Me.). After acclimation for one week, the mice were fed a normal diet (ND, 10 kcal %) or a high-fat diet (HFD, 60 kcal %) for 15 weeks. Thereafter, the mice were intraperitoneally injected with PBS or bvPLA2 (0.5 mg/kg) starting on week 5 and continuing for 11 weeks.
The obesity amelioration effect of bvPLA2 was evaluated through changes in adipose tissue weight and body weight of mice with HFD-induced obesity.
More specifically, the […] mice were fed ND or HFD for 15 weeks. After 4 weeks of ND or HFD feeding, the mice were injected with PLA2 or PBS, starting on week 5 (FIG. 1A). Thereafter, the adipose tissue and body weight were measured according to the injection or non-injection of bvPLA2.

[3] = tested on: CD206-deficient (CD206-/-) mice lacking the mannose receptor; test: Body weight and adipose tissue weight of CD206-deficient mice on HFD; format: in vivo; conditions: HFD+PLA2 vs HFD group
Protocol: as §1
In order to investigate the immunoregulatory effect of bvPLA2, CD206-deficient (CD206−/−) mice lacking the mannose receptor were used.
More specifically, the body weight and adipose tissue weight of CD206−/− mice were measured by way of the same method as the above experimental schedule (FIG. 1A).

[4] = tested on: obesity-induced mice, regulatory T cell depletion; test: Body weight of obesity-induced mice with regulatory T cell depletion (anti-mouse CD25 PC61) or rat IgG control; format: in vivo
Protocol: Anti-mouse CD25 (clone: PC61) was produced from hybridomas obtained from the American Type Culture Collection (ATCC; Manassas, Va., USA), and the mice were intraperitoneally injected with anti-mouse CD25 or rat IgG (Sigma-Aldrich) every 3 days for 11 weeks.
In order to investigate the correlation between bvPLA2 and regulatory T cells, regulatory T cell depletion was performed by injecting anti-mouse CD25 antibody (clone PC61) into mice every 3 days. Rat IgG was used as a control.

[5] = tested on: liver and kidney tissues from the mice; test: H&E staining of liver and kidney: HFD-induced hepatic steatosis and kidney damage; format: in vivo
Protocol: (§2) Liver and kidney tissues were fixed in 4% paraformaldehyde overnight, dehydrated, embedded in paraffin, and sectioned to a thickness of 4 μm. The sections were deparaffinized with xylene and then hydrated again with 100%, 90%, 80%, and 70% ethanol. The hydrated sections were washed with tap water and stained with a hematoxylin solution for 5 minutes. Thereafter, the stained sections were immersed in 1% acid alcohol, and then stained again in an eosin solution for 3 minutes. Thereafter, for mounting, the stained sections were dehydrated with 70%, 80%, 90%, or 100% ethanol […].
In order to investigate whether PLA2 alleviated HFD-induced hepatic steatosis and kidney inflammation, liver and kidney tissues from the mice were H&E stained.
Next, the glomerular diameter indicating an early indicator of diabetic nephropathy caused by kidney damage was investigated.

[6] = tested on: HFD-induced metabolic dysfunction; test: Serum/plasma levels of liver, kidney and metabolic markers by group; format: in vivo, mice
Protocol: The effects of bvPLA2 on liver and kidney functions were investigated.
More specifically, serum levels of alanine aminotransferase (ALT), aminotransferase (AST), blood urea nitrogen (BUN), and […] (Crea) were measured for each group.
In order to investigate the effect of bvPLA2 on metabolic syndrome, the triglyceride (TG), glucose (GLU), high-density lipoprotein cholesterol (HDL-C), and low-density lipoprotein cholesterol (LDL-C) levels were analyzed for each group.
In addition, plasma insulin and leptin levels were analyzed for each group.

[7] = tested on: pro-inflammatory macrophages in WAT; test: H&E histological examination of macrophage infiltration in WAT; format: in vivo, mice; conditions: bvPLA2-treated HFD+PLA2 group vs HFD group
Protocol: as §2
Since obesity is characterized by the localization of crown-like structures (CLS), which are formed by pro-inflammatory macrophages surrounding dead adipocytes in AT28, H&E histological examination was performed to investigate whether bvPLA2 inhibited the macrophage infiltration in WAT.

[8] = tested on: white adipose tissue (WAT); test: Quantitative real-time PCR of M1/M2 markers and adipogenic factors in white adipose tissue; format: in vivo, mice
Protocol: Total RNA was isolated from white adipose tissue (WAT) samples by using an easy-BLUE RNA extraction kit (iNtRON Biotechnology, Korea), and cDNA was synthesized using Cyclescript reverse transcriptase (Bioneer, Korea). The synthesized cDNA was subjected to quantitative real-time PCR (95° C. for 15 sec, 55° C. for 10 sec, and 72° C. for 10 sec) with SensiFAST SYBR no-Rox kit (Bioline, Korea), and each reaction was performed in triplicate. The primer sequences for the experiment were as follows:
The changes in macrophage phenotypes were analyzed by quantitative real-time PCR analysis.
More specifically, the expressions of TNF-α, IL-1β, and IL-12a were measured to investigate the effect of bvPLA2 on M1-related markers.
In addition, the expressions of the M2-related markers IL-4, CD206, and Ym1 were measured.
In addition, the expressions of PPARγ, C/EBPα, and UCP-1, which are markers related with lipid accumulation and adipogenesis, were measured.

[9] = bvPLA2-treated HFD group vs HFD group
[10] = serum, HFD+PLA2 group vs HFD group
[11] = M1-related marker, HFD+PLA2 group vs HFD group
[12] = M2-related marker, HFD-PLA2 group vs HFD group
[13] = lipid accumulation/adipogenesis marker, HFD+PLA2 group vs HFD group

Substance: mellitin [reference compound]
- body weight change [1]: increase in body weight

Substance: phospholipase A2 [bvPLA2]
- epididymal WAT weight ([2]; HFD+PLA2 group vs HFD group): greatly reduced
- inguinal WAT weight ([2]; HFD+PLA2 group vs HFD group): greatly reduced
- body weight ([2]; HFD+PLA2 group vs HFD group without PLA2, 0.5 mg/kg intraperitoneally from week 5): significant reduction in body weight
- food uptake ([2]; all groups (ND, HFD, with or without PLA2)): no food uptake change was observed
- adipose tissue weight [3]: no significant changes
- body weight [3]: no significant changes
- body weight ([4]; IgG+PLA2 obesity-induced group vs IgG-only obesity-induced group): significantly reduced
- body weight ([4]; PC61+PLA2 group vs PC61-treated group): markedly reduced
- kidney hypertrophy (increased glomerular diameter) ([5]; HFD+PLA2 group): no kidney hypertrophy
- kidney hypertrophy (increased glomerular diameter) ([5]; ND+PLA2 group): no kidney hypertrophy
- size and weight of the liver (lipid droplet accumulation and hepatomegaly) ([5]; ND+PLA2 group): no influence was observed
- size and weight of the liver (lipid droplet accumulation and hepatomegaly) [5, 9]: attenuated
- plasma insulin level ([6]; HFD+PLA2 group vs HFD group): significantly reduced
- plasma leptin level ([6]; HFD+PLA2 group vs HFD group): significantly reduced
- serum ALT level [6, 9]: reduced
- serum AST level [6, 9]: reduced
- serum Crea level [6, 9]: reduced
- GLU level [6, 10]: significantly reduced
- HDL-C level [6, 10]: significantly reduced
- LDL-C level [6, 10]: significantly reduced
- TG level [6, 10]: significantly reduced
- CLS formation in AT [7]: reduced
- macrophage infiltration in AT [7]: reduced
- UCP-1 expression ([8]; HFD+PLA2 group vs HFD group): significantly increased
- IL-1β expression [8, 11]: inhibited to levels similar to those in ND
- IL-12a expression [8, 11]: inhibited to levels similar to those in ND
- TNF-α expression [8, 11]: inhibited to levels similar to those in ND
- CD206 expression [8, 12]: significantly increased
- IL-4 expression [8, 12]: significantly increased
- C/EBPα expression [8, 13]: inhibited
- PPARγ expression [8, 13]: inhibited
- body weight change [1]: decrease in body weight
